Consider 10 compounds from patent US20220324835A1 (Nurix Therapeutics, Inc., priority 2018, published 2022).

The target in assay [1] is T1, Cbl-b (Homo sapiens, UniProt Q13191). The assay is described as follows: Cbl-b inhibition assay (Cbl-b activity assay, FRET, Biological Example 1; 100 mM NaCl, 60 nM Src kinase). The class given is biochemical. The note with it: upper bound stated in text lists; read-out: IC50 values in the Cbl-b inhibition assay of Biological Example 1. The essentials: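 Steps: Src kinase phosphorylates N-terminal biotinylated Avi-tagged Cbl-b; phosphorylated Cbl-b binds Bodipy-fluorescein ubiquitin-loaded UbcH5B; streptavidin-terbium on Cbl-b sits close to the fluorescein label, producing FRET. Inhibitors block UbcH5B-Ub binding.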
T1 sequence (Q13191 36-427): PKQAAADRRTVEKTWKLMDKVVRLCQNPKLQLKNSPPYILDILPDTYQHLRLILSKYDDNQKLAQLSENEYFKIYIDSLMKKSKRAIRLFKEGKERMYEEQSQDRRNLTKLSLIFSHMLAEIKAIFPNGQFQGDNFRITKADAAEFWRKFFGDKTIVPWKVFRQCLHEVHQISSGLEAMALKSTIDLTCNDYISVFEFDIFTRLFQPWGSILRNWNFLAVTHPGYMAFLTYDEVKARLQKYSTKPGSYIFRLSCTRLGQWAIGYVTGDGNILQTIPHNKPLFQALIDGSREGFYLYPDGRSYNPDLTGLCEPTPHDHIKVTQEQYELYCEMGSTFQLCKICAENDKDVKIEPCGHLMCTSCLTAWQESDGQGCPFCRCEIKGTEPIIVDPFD

Assay [2] relates to T-cell. Briefly: CD25 cell surface staining on T-cells co-stimulated with anti-CD3 and anti-CD28 antibody (Biological Example 2). The class given is cell-based, human. The note with it: Homo sapiens, T-cell, fold change over baseline, primary human total T-cells, read-out: CD25 staining Anti-CD3/Anti-CD28 stimulation; for fold induction at 0.3 µM: 0.3 μM Cbl-b inhibitor; for fold induction at 1 µM: 1 μM Cbl-b inhibitor; for fold induction at 4 µM: 4 μM Cbl-b inhibitor. The essentials:
(§1)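 T-cells were stimulated with anti-CD3 antibody alone or with anti-CD28 antibody, in the presence or absence of Cbl-b inhibitor. IL-2 secretion or CD25 surface staining was measured, and values expressed as fold over the uninhibited baseline […].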

Assay [3] has as its target T1, Cbl-b. The assay is described as follows: Cbl-b activity assay (Cbl-b inhibition assay), TR-FRET of Cbl-b interaction with UbcH5B-Ub. The class given is biochemical. The note with it: assay buffer with 100 mM NaCl, 60 nM Src kinase; read-out: Cbl-b activity IC50. The essentials: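 UbcH5B (C85K) conjugated to N-terminally Bodipy-Fluorescein-labeled ubiquitin served as the fluorescent partner. After compound preincubation, Src kinase (60 nM) with 1 mM ATP and 5 mM MgCl2 (final) was added for 1.5 h, followed by a further 1 h incubation. Some values were obtained with 50 mM NaCl and 30 nM Src.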
For orientation: Time-resolved FRET reads energy transfer from a long-lived donor to a nearby acceptor.

Assay [4] has as its system T-cell. Briefly: CD25 cell surface staining on T-cells stimulated with anti-CD3 antibody alone (Biological Example 2). The class given is cell-based, human. The note with it: T-cell, fold change over baseline, primary human total T-cells, read-out: CD25 staining Anti-CD3 stimulation; for fold induction at 1 µM: 1 μM Cbl-b inhibitor; for fold induction at 8 µM: 8 μM Cbl-b inhibitor.

Assay [5] has as its system T-cell. The assay is described as follows: IL-2 secretion from T-cells stimulated with anti-CD3 antibody alone (Biological Example 2). The class given is cell-based, human. The following applies: T-cell, fold change over baseline, primary human total T-cells, read-out: IL-2 secretion Anti-CD3 stimulation; for fold induction at 1 µM: 1 μM Cbl-b inhibitor; for fold induction at 8 µM: 8 μM Cbl-b inhibitor.

Assay [6] has as its system T-cell. The assay is described as follows: IL-2 secretion from T-cells co-stimulated with anti-CD3 and anti-CD28 antibody (Biological Example 2). The class given is cell-based, human. The note with it: Homo sapiens, T-cell, fold change over baseline, primary human total T-cells, read-out: IL-2 secretion Anti-CD3/Anti-CD28 stimulation; for fold induction at 0.3 µM: 0.3 μM Cbl-b inhibitor; for fold induction at 1 µM: 1 μM Cbl-b inhibitor; for fold induction at 4 µM: 4 μM Cbl-b inhibitor. The essentials: as §1

Each structure is given as a SMILES string. Where only a bound is given, the exact number is not on record here.

What is called IC50 is the concentration that gives 50% inhibition. Turning to `Cc1ccnn1CC(C)c1cccc(NC(=O)c2cccc(C(F)(F)F)n2)c1` (stereo not drawn) [Compound 215, N-[3-[1-methyl-2-(5-methylpyrazol-1-yl)ethyl]phenyl]-6-(trifluoromethyl)pyridine-2-carboxamide], the half-maximal inhibitory concentration (IC50) on Cbl-b [1] is at most 1000 nM; on Cbl-b [3] it was 301 to 1000 nM. The results for the fold induction at 0.3 µM with T-cell [2] and in the assay on T-cell [6] were 1.51 to 1.75 and under 1, respectively. For the same compound, the fold induction at 1 µM in the assay with T-cell [2] is 1.31 to 1.5; with T-cell [4], under 0.6; in the assay on T-cell [5], 0.051 to 0.1; in the assay with T-cell [6] it was under 1. The fold induction at 4 µM in the assay with T-cell [2] lay within 1.51 to 1.75; with T-cell [6], 1.01 to 2.5. Besides, the fold induction at 8 µM in the assay with T-cell [4] was under 0.6; in the assay with T-cell [5], 0.051 to 0.1.

`C[C@@H](Cc1nncn1C)c1cccc(NC(=O)c2cc(C(=O)N3CC[C@H](O)C3)cc(C3CC3)n2)c1` [Compound 221, 6-Cyclopropyl-4-[(3S)-3-hydroxypyrrolidine-1-carbonyl]-N-[3-[(1S)-1-methyl-2-(4-methyl-1,2,4-triazol-3-yl)ethyl]phenyl]pyridine-2-carboxamide]: the IC50 was at most 1000 nM at Cbl-b [1] and 301 to 1000 nM on Cbl-b [3]. The figures for the fold induction at 0.3 µM in the assay with T-cell [2] and with T-cell [6] were 1.01 to 1.3 and under 1, respectively. Further, the fold induction at 1 µM is 1.31 to 1.5 in the assay on T-cell [2], under 0.6 with T-cell [4], 0.051 to 0.1 in the assay with T-cell [5] and under 1 in the assay with T-cell [6]. Also, the fold induction at 4 µM in the assay on T-cell [2] is 1.31 to 1.5; with T-cell [6], under 1. Moreover, the fold induction at 8 µM was under 0.6 with T-cell [4] and 0.051 to 0.1 with T-cell [5].

`C[C@H](Cc1nncn1C)c1cccc(N2Cc3c(cc(C4CC4)cc3C(F)(F)F)C2=O)c1` [Compound 260, (R)-6-cyclopropyl-2-(3-(1-(4-methyl-4H-1,2,4-triazol-3-yl)propan-2-yl)phenyl)-4-(trifluoromethyl)isoindolin-1-one]: the concentration for half-maximal inhibition (IC50) is at most 100 nM at Cbl-b [1] and under 100 nM at Cbl-b [3]. Besides, the fold induction at 0.3 µM in the assay on T-cell [2] was in the range of 1.01 to 1.3; in the assay on T-cell [6], 1.01 to 2.5. The fold induction at 1 µM was 1.01 to 1.3 with T-cell [2], 0.801 to 1 in the assay on T-cell [4], over 0.201 with T-cell [5] and 1.01 to 2.5 with T-cell [6]. In addition, the fold induction at 4 µM in the assay on T-cell [2] fell in the range of 1.31 to 1.5; in the assay on T-cell [6], 2.51 to 5. Besides, the fold induction at 8 µM in the assay on T-cell [4] was over 1; with T-cell [5] it was over 0.201.

Turning to `Cc1conc1CC(C)c1cccc(N2Cc3c(cccc3C(F)(F)F)C2=O)c1` (stereo not drawn) [Compound 268, 2-(3-(1-(4-methylisoxazol-3-yl)propan-2-yl)phenyl)-4-(trifluoromethyl)isoindolin-1-one], the 50% inhibitory concentration (IC50) on Cbl-b [1] is at most 500 nM; at Cbl-b [3] it was 301 to 1000 nM. The values for the fold induction at 0.3 µM in the assay on T-cell [2] and in the assay with T-cell [6] were 1.01 to 1.3 and 1.01 to 2.5, respectively. Moreover, the fold induction at 1 µM was 1.01 to 1.3 in the assay on T-cell [2], 0.601 to 0.8 with T-cell [4], under 0.05 in the assay with T-cell [5] and 1.01 to 2.5 in the assay with T-cell [6]. Also, the fold induction at 4 µM in the assay on T-cell [2] was 1.01 to 1.3; in the assay on T-cell [6] it was 1.01 to 2.5. The fold induction at 8 µM with T-cell [4] lay in the range of 0.801 to 1; with T-cell [5] it was 0.051 to 0.1.

With `C[C@H](Cc1nncn1C)c1cccc(N2Cc3c(cc(C(=O)N4CC(O)C4)cc3C3CC3)C2=O)c1` [Compound 278, (R)-4-cyclopropyl-6-(3-hydroxyazetidine-1-carbonyl)-2-(3-(1-(4-methyl-4H-1,2,4-triazol-3-yl)propan-2-yl)phenyl)isoindolin-1-one], the values for the IC50 on Cbl-b [1] and on Cbl-b [3] were at most 100 nM and under 100 nM, respectively. For the same compound, the figures for the fold induction at 0.3 µM in the assay with T-cell [2] and in the assay on T-cell [6] were 1.01 to 1.3 and 1.01 to 2.5, respectively. The fold induction at 1 µM with T-cell [2] is 1.01 to 1.3; with T-cell [4] it was 0.801 to 1; with T-cell [5] it was 0.151 to 0.2; with T-cell [6], 1.01 to 2.5. In addition, the results for the fold induction at 4 µM with T-cell [2] and with T-cell [6] were 1.01 to 1.3 and 2.51 to 5, respectively. In addition, the fold induction at 8 µM in the assay on T-cell [4] is over 1; in the assay on T-cell [5], over 0.201.

In the case of `C[C@H](Cc1nncn1C)c1cccc(N2Cc3c(cc(-c4ccn[nH]4)cc3C(F)(F)F)C2=O)c1` [Compound 279, (R)-2-(3-(1-(4-methyl-4H-1,2,4-triazol-3-yl)propan-2-yl)phenyl)-6-(1H-pyrazol-5-yl)-4-(trifluoromethyl)isoindolin-1-one], the IC50 is at most 100 nM at Cbl-b [1] and under 100 nM at Cbl-b [3]. Also, the fold induction at 0.3 µM lay in the range of 1.01 to 1.3 with T-cell [2] and 2.51 to 5 in the assay on T-cell [6]. For the same compound, the fold induction at 1 µM with T-cell [2] is 1.31 to 1.5; in the assay on T-cell [4] it was over 1; with T-cell [5] it was over 0.201; in the assay with T-cell [6], 5 to 7.5. For the same compound, the fold induction at 4 µM in the assay with T-cell [2] was 1.31 to 1.5; in the assay with T-cell [6], over 7.5. Also, the fold induction at 8 µM in the assay with T-cell [4] is over 1; in the assay on T-cell [5], over 0.201.

On to `Cn1cnnc1CC(C)(C)c1cccc(NC(=O)c2cccc(C(F)(F)F)n2)c1` [Compound 284, N-(3-(2-methyl-1-(4-methyl-4H-1,2,4-triazol-3-yl)propan-2-yl)phenyl)-6-(trifluoromethyl)picolinamide], for which the IC50 on Cbl-b [1] was at most 100 nM; on Cbl-b [3], under 100 nM. Moreover, the fold induction at 0.3 µM fell in the range of 1.01 to 1.3 in the assay on T-cell [2] and 1.01 to 2.5 with T-cell [6]. Besides, the fold induction at 1 µM is 1.01 to 1.3 in the assay on T-cell [2], 0.801 to 1 in the assay with T-cell [4], over 0.201 with T-cell [5] and 2.51 to 5 in the assay on T-cell [6]. In addition, the fold induction at 4 µM with T-cell [2] is 1.31 to 1.5; in the assay with T-cell [6] it was over 7.5. Moreover, the fold induction at 8 µM is over 1 in the assay with T-cell [4] and over 0.201 in the assay with T-cell [5].

With `Cn1cnnc1CC(c1cccc(N2Cc3c(cccc3C(F)(F)F)C2=O)c1)C(F)(F)F` (stereo not drawn) [Compound 289, 2-(3-(1,1,1-Trifluoro-3-(4-methyl-4H-1,2,4-triazol-3-yl)propan-2-yl)phenyl)-4-(trifluoromethyl)isoindolin-1-one], the 50% inhibitory concentration (IC50) at Cbl-b [1] was at most 500 nM; on Cbl-b [3], 301 to 1000 nM. Also, the fold induction at 0.3 µM is 1.01 to 1.3 in the assay on T-cell [2] and under 1 with T-cell [6]. The fold induction at 1 µM in the assay on T-cell [2] was 1.01 to 1.3; in the assay with T-cell [4], 0.801 to 1; in the assay on T-cell [5], 0.101 to 0.15; in the assay on T-cell [6] it was under 1. For the same compound, the fold induction at 4 µM in the assay with T-cell [2] was 1.01 to 1.3; with T-cell [6] it was 1.01 to 2.5. Moreover, the fold induction at 8 µM with T-cell [4] lay in the range of 0.801 to 1; with T-cell [5] it was 0.151 to 0.2.

Consider `C[C@H](Cc1nncn1C)c1cccc(NC(=O)c2ccnc3ccnn23)c1` [Compound 328, (R)-N-(3-(1-(4-Methyl-4H-1,2,4-triazol-3-yl)propan-2-yl)phenyl)pyrazolo[1,5-a]pyrimidine-7-carboxamide], for which the IC50 on Cbl-b [1] was at most 100 nM; at Cbl-b [3], under 100 nM. The fold induction at 0.3 µM in the assay with T-cell [2] was 1.01 to 1.3; in the assay with T-cell [6], 1.01 to 2.5. Moreover, the fold induction at 1 µM with T-cell [2] is 1.01 to 1.3; in the assay on T-cell [4] it was 0.801 to 1; in the assay on T-cell [5] it was 0.051 to 0.1; with T-cell [6], 1.01 to 2.5. Also, the fold induction at 4 µM with T-cell [2] was 1.01 to 1.3; in the assay with T-cell [6] it was 2.51 to 5. In addition, the results for the fold induction at 8 µM with T-cell [4] and in the assay on T-cell [5] were over 1 and 0.101 to 0.15, respectively.

With `Cc1cc(C(=O)Nc2cccc([C@H](C)Cc3nncn3C)c2)nc2ccnn12` [Compound 329, (R)-7-Methyl-N-(3-(1-(4-methyl-4H-1,2,4-triazol-3-yl)propan-2-yl)phenyl)pyrazolo[1,5-a]pyrimidine-5-carboxamide], the results for the IC50 on Cbl-b [1] and on Cbl-b [3] were at most 300 nM and 100 to 300 nM, respectively. Besides, the figures for the fold induction at 0.3 µM in the assay with T-cell [2] and in the assay on T-cell [6] were 1.01 to 1.3 and 1.01 to 2.5, respectively. Besides, the fold induction at 1 µM with T-cell [2] is 1.01 to 1.3; in the assay with T-cell [4], 0.601 to 0.8; with T-cell [5] it was 0.101 to 0.15; in the assay on T-cell [6] it was 1.01 to 2.5. For the same compound, the fold induction at 4 µM with T-cell [2] was in the range of 1.31 to 1.5; in the assay with T-cell [6] it was 5 to 7.5. Besides, the fold induction at 8 µM is over 1 in the assay on T-cell [4] and over 0.201 with T-cell [5].
